Test results reported in patent US10449152B2, “Drug loaded microspheres for post-operative chronic pain” (priority 2014, dated 2019).

Assays:
sciatic nerve [1] = test: sciatic nerve block in rats (paw pinch, motor block); type: in vivo; details: single bolus of about 0.4 milliliters at the sciatic nerve
Experimental: The microspheres of Example 1 were also tested for sciatic nerve block and for subcutaneous infiltration anesthesia in rats. Sciatic nerves were injected with nominal doses of microspheres of Example 1, having about 40 milligrams of bupivacaine, by injection as a single bolus of about 0.4 milliliters. […] Half-recovery of these respective functions occurred at about 42±6 hours and 36±3 hours, and normal, pre-block function was restored by about 63±8 hours for nociception and about 56±7 hours for motor block. By comparison, injection of about 0.4 milliliters of about 0.5% by weight aqueous bupivacaine solution gave complete blocks for only about 0.5 hours to about 1 hours for nociception and about 1 hour for motor functions, with complete recovery by about 3 hours for both functions.

[2] = system: post-operative hyperalgesia after paw incision; test: paw incision post-operative hyperalgesia, injection at the sciatic nerve; type: in vivo, rats; details: nerve block before paw incision
Experimental: Microspheres of Example 1 were also tested for anti-hyperalgesic effects after rodent surgery. […] If microspheres of Example 1 were injected at the sciatic nerve approximately 1.5 hours before the surgery, the subsequent post-operative hyperalgesia was suppressed for about 4 days. In contrast, nerve block by 0.5% by weight aqueous bupivacaine solution suppressed post-operative hyperalgesia for about 6 hours. Microspheres of Example 2 were ineffective against post-incisional pain.

[3] = system: post-operative allodynia and hyperalgesia; test: incision and blunt dissection of the back skin, post-operative allodynia and hyperalgesia; type: in vivo, rats; details: about 0.4 milliliters subcutaneous infiltration
Experimental: In a second surgical scenario, Microspheres of Example 1 were injected as a subcutaneous infiltration in the thoraco-lumbar region before an incision and blunt dissection of the back skin. Microspheres of Example 1, including about 40 milligrams of bupivacaine, were injected as a single bolus of about 0.4 milliliters. The injection produced anesthesia to VFH pokes at the injected area for about 6 hours and anesthesia to pin pricks for about 12 hours. Post-operative allodynia and hyperalgesia in this model lasted for about 14 days, but were suppressed for approximately 5 days and 3 days, respectively, by microspheres of Example 1 injected approximately 2 hours before surgery. About 0.4 milliliters of 0.5% by weight aqueous bupivacaine solution was ineffective in reducing post-operative hypersensitivity, just as the microspheres of Example 2 were also ineffective.

sciatic nerve [4] = test: sciatic nerve block, latency for leg withdrawal from noxious heat; type: in vivo, male S-D rats; details: about 0.6 milliliters next to the sciatic nerve; heat stimulus of about 56° C.
Experimental: The anti-nociceptive activity of EXPAREL® particles was also tested. The latency for leg withdrawal in male S-D rats from a noxious heat stimulus of about 56° C. applied to the plantar surface of the paw was used to test the duration of functional sciatic nerve block achieved using EXPAREL®. The normal latency for paw withdrawal was about 2 seconds and “maximal sensory blockade” was characterized by a latency of about 12 seconds. Sensory blockade of about 0.6 milliliters of EXPAREL® containing about 7.8 milligrams of bupivacaine, injected next to the sciatic nerve of an adult male S-D rat weighing from about 310 grams to about 420 grams, which was equivalent to about 25 milligrams of bupivacaine per kilogram, was determined by the time from injection until the latency returned to about 7 seconds, half way back to the pre-injection latency of about 2 seconds. By this criterion, the sensing block from EXPAREL® lasted about 240 minutes, and that from 0.6 milliliter solution of about 0.5% by weight bupivacaine, which was used as a control, lasted about 120 minutes.

**Q.** How did the “duration of complete motor block (total flaccid paralysis)” value (sciatic nerve [1]) turn out when `CCCCN1CCCCC1C(=O)Nc1c(C)cccc1C` (stereo not drawn) [bupivacaine] was run?
**A.** Its value is “about 1 hours”.

**Q.** What about the “time to normal, pre-block function (complete recovery), motor” value (sciatic nerve [1]) of the same compound?
**A.** Its value is “about 3 hours”.

**Q.** What about the “time to normal, pre-block function (complete recovery), nociception” value (sciatic nerve [1]) of the same compound?
**A.** Its value is “about 3 hours”.

**Q.** What about the “time for which post-operative hyperalgesia was suppressed” value [2] of the same compound?
**A.** The value was “about 6 hours”.

**Q.** And the “reduction of post-operative hypersensitivity” value [3]?
**A.** Its value is “ineffective”.

**Q.** What about the “duration of sensory block (time until latency returned to about 7 seconds)” value (sciatic nerve [4]) of the same compound?
**A.** The value was “about 120 minutes”.
